{"source": "patent US11911361B2", "about": "“Stable cannabinoid formulations” (priority 2014, dated 2024)", "key": {"[1]": {"test_system": "paclitaxel-induced mechanical sensitivity", "assay": "Paclitaxel induced neuropathic pain study (Von Frey mechanical sensitivity)", "assay_type": "in vivo, mice"}, "[2]": {"assay": "Pharmacokinetic food-effect study, single 20 mg/kg dose, healthy subjects (Example 17)", "conditions": "7-OH-cannabidiol; for ln(AUC0-inf) Geometric Mean / ln(AUC0-t) Geometric Mean / ln(Cmax) Geometric Mean: least squares geometric mean; for AUC0 / AUC0-0.25 / AUC0-0.5 / AUC0-0.75 / AUC0-1 / AUC0-1.5 / AUC0-2 / AUC0-2.5 / AUC0-3 / AUC0-4 / AUC0-6 / AUC0-8 / AUC0-12 / AUC0-16 / AUC0-24 / AUC0-36 / AUC0-48 / AUC0-72 / AUC0-96 / AUC0-120: single 20 mg/kg cannabidiol oral, mean ± SD; for AUC(0-inf) / AUC(0-t) / AUCextrap / Clast / Cmax / Tlast / t1/2 / λz / Tmax: single 20 mg/kg oral dose of cannabidiol solution; for AUC(0-inf) / AUC(0-t) / AUCextrap / Clast / Cmax / Tlast / t1/2 / λz: mean; for Tmax: median (min, max)", "procedure": "An open label, randomized, single-dose, two-period, two-way crossover food-effect study was conducted on healthy subjects. […] Twenty-four (24) subjects were enrolled in the study and each were subjected to the fasted and fed treatment arms in separate periods followed by a 7-day wash-out period. For pharmacokinetic analysis, nominal time and default lambda-z selections were used. All below quantifiable limit values were set to zero and all subjects were included in the analysis.\nData from 13 subjects from the fasted treatment and 24 subject from the fed treatment were included in the pharmacokinetic and statistical analyses."}, "[3]": {"conditions": "20 mg/kg cannabidiol oral, Fasted"}, "[4]": {"conditions": "20 mg/kg cannabidiol oral, geometric mean (fed)/geometric mean (fasted)"}}, "data": [{"smiles": "CCCCCc1cc(O)c2c(c1)OC(C)(C)[C@@H]1CCC(C)=C[C@@H]21", "note": "[THC, reference compound]", "values": [{"measurement": "minimal effective dose", "setting": "[1]; IP", "result": 2.5, "unit": "mg/kg"}, {"measurement": "dose equi-effective to […] CBD", "setting": "[1]; dose equivalence analysis", "result": 0.7, "unit": "mg/kg"}, {"measurement": "effect on paclitaxel-induced mechanical sensitivity (in words)", "setting": "[1]; pretreatment 15 minutes prior to each paclitaxel injection, IP", "result": "significantly attenuated"}]}, {"smiles": "C=C(C)[C@@H]1CCC(CO)=C[C@H]1c1c(O)cc(CCCCC)cc1O", "note": "[Formulation 7-OH-cannabidiol]", "values": [{"measurement": "ln(AUC0-inf) Geometric Mean", "setting": "[2]; [3]", "result": 657.5873}, {"measurement": "ln(AUC0-t) Geometric Mean", "setting": "[2]; [3]", "result": 630.3322}, {"measurement": "ln(Cmax) Geometric Mean", "setting": "[2]; [3]", "result": 34.8933}, {"measurement": "ln(AUC0-inf) Geometric Mean", "setting": "[2]; 20 mg/kg cannabidiol oral, Fed", "result": 4701.4345}, {"measurement": "ln(AUC0-t) Geometric Mean", "setting": "[2]; 20 mg/kg cannabidiol oral, Fed", "result": 4610.3024}, {"measurement": "ln(Cmax) Geometric Mean", "setting": "[2]; 20 mg/kg cannabidiol oral, Fed", "result": 442.6751}, {"measurement": "ln(AUC0-inf) Ratio (%) (Fed/Fasted)", "setting": "[2]; [4]", "result": 714.95, "unit": "%"}, {"measurement": "ln(AUC0-t) Ratio (%) (Fed/Fasted)", "setting": "[2]; [4]", "result": 731.41, "unit": "%"}, {"measurement": "ln(Cmax) Ratio (%) (Fed/Fasted)", "setting": "[2]; [4]", "result": 1268.65, "unit": "%"}, {"measurement": "AUC0", "setting": "[2]; fasted", "result": "0.114 ± 0.410", "unit": "ng·h/mL"}, {"measurement": "AUC0-0.25", "setting": "[2]; fasted", "result": "0.101 ± 0.363", "unit": "ng·h/mL"}, {"measurement": "AUC0-0.5", "setting": "[2]; fasted", "result": "0.217 ± 0.361", "unit": "ng·h/mL"}, {"measurement": "AUC0-0.75", "setting": "[2]; fasted", "result": "0.954 ± 0.843", "unit": "ng·h/mL"}, {"measurement": "AUC0-1", "setting": "[2]; fasted", "result": "2.29 ± 2.13", "unit": "ng·h/mL"}, {"measurement": "AUC0-1.5", "setting": "[2]; fasted", "result": "3.91 ± 3.90", "unit": "ng·h/mL"}, {"measurement": "AUC0-2", "setting": "[2]; fasted", "result": "5.46 ± 5.23", "unit": "ng·h/mL"}, {"measurement": "AUC0-2.5", "setting": "[2]; fasted", "result": "6.81 ± 6.85", "unit": "ng·h/mL"}, {"measurement": "AUC0-3", "setting": "[2]; fasted", "result": "7.83 ± 8.27", "unit": "ng·h/mL"}, {"measurement": "AUC0-4", "setting": "[2]; fasted", "result": "8.65 ± 8.64", "unit": "ng·h/mL"}, {"measurement": "AUC0-6", "setting": "[2]; fasted", "result": "9.79 ± 7.71", "unit": "ng·h/mL"}, {"measurement": "AUC0-8", "setting": "[2]; fasted", "result": "18.5 ± 34.2", "unit": "ng·h/mL"}, {"measurement": "AUC0-12", "setting": "[2]; fasted", "result": "10.1 ± 8.36", "unit": "ng·h/mL"}, {"measurement": "AUC0-16", "setting": "[2]; fasted", "result": "7.23 ± 4.28", "unit": "ng·h/mL"}, {"measurement": "AUC0-24", "setting": "[2]; fasted", "result": "6.09 ± 2.70", "unit": "ng·h/mL"}, {"measurement": "AUC0-36", "setting": "[2]; fasted", "result": "4.39 ± 2.45", "unit": "ng·h/mL"}, {"measurement": "AUC0-48", "setting": "[2]; fasted", "result": "3.00 ± 1.91", "unit": "ng·h/mL"}, {"measurement": "AUC0-72", "setting": "[2]; fasted", "result": "1.65 ± 1.38", "unit": "ng·h/mL"}, {"measurement": "AUC0-96", "setting": "[2]; fasted", "result": "1.04 ± 1.11", "unit": "ng·h/mL"}, {"measurement": "AUC0-120", "setting": "[2]; fasted", "result": "0.511 ± 0.799", "unit": "ng·h/mL"}, {"measurement": "AUC0", "setting": "[2]; fed", "result": "0.131 ± 0.537", "unit": "ng·h/mL"}, {"measurement": "AUC0-0.25", "setting": "[2]; fed", "result": "0.221 ± 0.676", "unit": "ng·h/mL"}, {"measurement": "AUC0-0.5", "setting": "[2]; fed", "result": "0.980 ± 1.29", "unit": "ng·h/mL"}, {"measurement": "AUC0-0.75", "setting": "[2]; fed", "result": "2.87 ± 4.21", "unit": "ng·h/mL"}, {"measurement": "AUC0-1", "setting": "[2]; fed", "result": "7.33 ± 11.7", "unit": "ng·h/mL"}, {"measurement": "AUC0-1.5", "setting": "[2]; fed", "result": "47.5 ± 78.5", "unit": "ng·h/mL"}, {"measurement": "AUC0-2", "setting": "[2]; fed", "result": "104 ± 150", "unit": "ng·h/mL"}, {"measurement": "AUC0-2.5", "setting": "[2]; fed", "result": "158 ± 202", "unit": "ng·h/mL"}, {"measurement": "AUC0-3", "setting": "[2]; fed", "result": "197 ± 235", "unit": "ng·h/mL"}, {"measurement": "AUC0-4", "setting": "[2]; fed", "result": "289 ± 290", "unit": "ng·h/mL"}, {"measurement": "AUC0-6", "setting": "[2]; fed", "result": "346 ± 188", "unit": "ng·h/mL"}, {"measurement": "AUC0-8", "setting": "[2]; fed", "result": "284 ± 128", "unit": "ng·h/mL"}, {"measurement": "AUC0-12", "setting": "[2]; fed", "result": "187 ± 121", "unit": "ng·h/mL"}, {"measurement": "AUC0-16", "setting": "[2]; fed", "result": "85.7 ± 36.9", "unit": "ng·h/mL"}, {"measurement": "AUC0-24", "setting": "[2]; fed", "result": "47.5 ± 23.0", "unit": "ng·h/mL"}, {"measurement": "AUC0-36", "setting": "[2]; fed", "result": "26.7 ± 13.1", "unit": "ng·h/mL"}, {"measurement": "AUC0-48", "setting": "[2]; fed", "result": "16.9 ± 7.73", "unit": "ng·h/mL"}, {"measurement": "AUC0-72", "setting": "[2]; fed", "result": "7.36 ± 3.10", "unit": "ng·h/mL"}, {"measurement": "AUC0-96", "setting": "[2]; fed", "result": "4.03 ± 1.94", "unit": "ng·h/mL"}, {"measurement": "AUC0-120", "setting": "[2]; fed", "result": "2.41 ± 1.26", "unit": "ng·h/mL"}, {"measurement": "AUC(0-inf)", "setting": "[2]; fasted", "result": 425.3, "unit": "ng·h/mL"}, {"measurement": "AUC(0-t)", "setting": "[2]; fasted", "result": 414.7, "unit": "ng·h/mL"}, {"measurement": "AUCextrap", "setting": "[2]; fasted", "result": 2.77, "unit": "%"}, {"measurement": "Clast", "setting": "[2]; fasted", "result": 0.561, "unit": "ng/mL"}, {"measurement": "Cmax", "setting": "[2]; fasted", "result": 22.8, "unit": "ng/mL"}, {"measurement": "Tlast", "setting": "[2]; fasted", "result": 114.47, "unit": "h"}, {"measurement": "t1/2", "setting": "[2]; fasted", "result": 21.36, "unit": "h"}, {"measurement": "λz", "setting": "[2]; fasted", "result": 0.0348, "unit": "h⁻¹"}, {"measurement": "Tmax", "setting": "[2]; fasted", "result": "8.00 (2.50, 24.00) h"}, {"measurement": "AUC(0-inf)", "setting": "[2]; fed", "result": 4902, "unit": "ng·h/mL"}, {"measurement": "AUC(0-t)", "setting": "[2]; fed", "result": 4811, "unit": "ng·h/mL"}, {"measurement": "AUCextrap", "setting": "[2]; fed", "result": 1.93, "unit": "%"}, {"measurement": "Clast", "setting": "[2]; fed", "result": 2.41, "unit": "ng/mL"}, {"measurement": "Cmax", "setting": "[2]; fed", "result": 474, "unit": "ng/mL"}, {"measurement": "Tlast", "setting": "[2]; fed", "result": 120.00, "unit": "h"}, {"measurement": "t1/2", "setting": "[2]; fed", "result": 24.69, "unit": "h"}, {"measurement": "λz", "setting": "[2]; fed", "result": 0.0292, "unit": "h⁻¹"}, {"measurement": "Tmax", "setting": "[2]; fed", "result": "6.00 (3.00, 12.00) h"}]}]}
